From ChEMBL document CHEMBL3046293, “Fungicidal Activities of -Methoxyphenylacetic Acid Derivatives” (2002)

What was measured:
Type in all cases: functional
[1] = system: Pseudoperonospora cubensis; experiment: Fungicidal activity against Pseudoperonospora cubensis assessed as cucumber downy mildew disease control at 7.8 ppm foliar application 24 hr after inoculation by curative manner
[2] = system: Podosphaera fuliginea; experiment: Fungicidal activity against Podosphaera fuliginea assessed as cucumber powdery mildew control at 0.5 ppm foliar application 24 hr after inoculation by curative manner
[3] = system: Thanatephorus cucumeris; experiment: Fungicidal activity against Thanatephorus cucumeris assessed as rice sheath blight disease control at 31.3 ppm foliar application for 24 hr before inoculation by preventive manner
[4] = system: Blumeria graminis; experiment: Fungicidal activity against Blumeria graminis f. sp. tritici assessed as wheat powdery mildew disease control at 125 ppm foliar application for 24 hr before inoculation by preventive manner
[5] = system: Podosphaera fuliginea; experiment: Fungicidal activity against Podosphaera fuliginea assessed as cucumber powdery mildew control at 2 ppm foliar application 24 hr after inoculation by curative manner
[6] = system: Thanatephorus cucumeris; experiment: Fungicidal activity against Thanatephorus cucumeris assessed as rice sheath blight disease control at 125 ppm foliar application for 24 hr after inoculation by curative manner
[7] = system: Botrytis cinerea; experiment: Fungicidal activity against Botryotinia fuckeliana assessed as cucumber gray mold disease control at 125 ppm foliar application 24 hr before inoculation by preventive manner
[8] = system: Thanatephorus cucumeris; experiment: Fungicidal activity against Thanatephorus cucumeris assessed as rice sheath blight disease control at 125 ppm foliar application for 24 hr before inoculation by preventive manner
[9] = system: Pseudoperonospora cubensis; experiment: Fungicidal activity against Pseudoperonospora cubensis assessed as cucumber downy mildew disease control at 125 ppm foliar application 24 hr before inoculation onto the adaxial(treated) surface of leaf by preventive manner
[10] = system: Pseudoperonospora cubensis; experiment: Fungicidal activity against Pseudoperonospora cubensis assessed as cucumber downy mildew disease control at 7.8 ppm foliar application 24 hr before inoculation onto the adaxial(treated) surface of leaf by preventive manner
[11] = system: Podosphaera fuliginea; experiment: Fungicidal activity against Podosphaera fuliginea assessed as cucumber powdery mildew control at 0.5 ppm foliar application 24 hr before inoculation by preventive manner
[12] = system: Botrytis cinerea; experiment: Fungicidal activity against Botryotinia fuckeliana assessed as cucumber gray mold disease control at 2 ppm foliar application 24 hr before inoculation by preventive manner
[13] = system: Pyricularia oryzae; experiment: Fungicidal activity against Magnaporthe oryzae Cav. race 003 assessed as rice blast disease control at 31.3 ppm foliar application for 24 hr before inoculation by preventive manner
[14] = system: Blumeria graminis; experiment: Fungicidal activity against Blumeria graminis f. sp. tritici assessed as wheat powdery mildew disease control at 125 ppm foliar application for 24 hr after inoculation by curative manner
[15] = system: Pseudoperonospora cubensis; experiment: Fungicidal activity against Pseudoperonospora cubensis assessed as cucumber downy mildew disease control at 2 ppm foliar application 24 hr before inoculation onto the abaxial(treated) surface of leaf by preventive manner
[16] = system: Pseudoperonospora cubensis; experiment: Fungicidal activity against Pseudoperonospora cubensis assessed as cucumber downy mildew disease control at 31.3 ppm foliar application 24 hr before inoculation onto the abaxial(treated) surface of leaf by preventive manner
[17] = system: Pseudoperonospora cubensis; experiment: Fungicidal activity against Pseudoperonospora cubensis assessed as cucumber downy mildew disease control at 125 ppm foliar application 24 hr before inoculation onto the abaxial(treated) surface of leaf by preventive manner
[18] = system: Thanatephorus cucumeris; experiment: Fungicidal activity against Thanatephorus cucumeris assessed as rice sheath blight disease control at 31.3 ppm foliar application for 24 hr after inoculation by curative manner
[19] = system: Botrytis cinerea; experiment: Fungicidal activity against Botryotinia fuckeliana assessed as cucumber gray mold disease control at 125 ppm foliar application 24 hr after inoculation by curative manner
[20] = system: Podosphaera fuliginea; experiment: Fungicidal activity against Podosphaera fuliginea assessed as cucumber powdery mildew control at 0.125 ppm foliar application 24 hr after inoculation by curative manner
[21] = system: Thanatephorus cucumeris; experiment: Fungicidal activity against Thanatephorus cucumeris assessed as rice sheath blight disease control at 7.8 ppm foliar application for 24 hr before inoculation by preventive manner
[22] = system: Pyricularia oryzae; experiment: Fungicidal activity against Magnaporthe oryzae Cav. race 003 assessed as rice blast disease control at 2 ppm foliar application for 24 hr before inoculation by preventive manner
[23] = system: Pyricularia oryzae; experiment: Fungicidal activity against Magnaporthe oryzae Cav. race 003 assessed as rice blast disease control at 31.3 ppm treated 24 hr before inoculation by preventive manner
[24] = system: Blumeria graminis; experiment: Fungicidal activity against Blumeria graminis f. sp. tritici assessed as wheat powdery mildew disease control at 2 ppm foliar application for 24 hr after inoculation by curative manner
[25] = system: Pseudoperonospora cubensis; experiment: Fungicidal activity against Pseudoperonospora cubensis assessed as cucumber downy mildew disease control at 7.8 ppm foliar application 24 hr before inoculation onto the abaxial(treated) surface of leaf by preventive manner
[26] = system: Thanatephorus cucumeris; experiment: Fungicidal activity against Thanatephorus cucumeris assessed as rice sheath blight disease control at 2 ppm foliar application for 24 hr before inoculation by preventive manner
[27] = system: Podosphaera fuliginea; experiment: Fungicidal activity against Podosphaera fuliginea assessed as cucumber powdery mildew control at 2 ppm foliar application 24 hr before inoculation by preventive manner
[28] = system: Thanatephorus cucumeris; experiment: Fungicidal activity against Thanatephorus cucumeris assessed as rice sheath blight disease control at 2 ppm foliar application for 24 hr after inoculation by curative manner
[29] = system: Botrytis cinerea; experiment: Fungicidal activity against Botryotinia fuckeliana assessed as cucumber gray mold disease control at 31.3 ppm foliar application 24 hr after inoculation by curative manner
[30] = system: Podosphaera fuliginea; experiment: Fungicidal activity against Podosphaera fuliginea assessed as cucumber powdery mildew control at 7.8 ppm foliar application 24 hr before inoculation by preventive manner
[31] = system: Podosphaera fuliginea; experiment: Fungicidal activity against Podosphaera fuliginea assessed as cucumber powdery mildew disease control at 7.8 ppm treated 24 hr before inoculation by preventive manner
[32] = system: Thanatephorus cucumeris; experiment: Fungicidal activity against Thanatephorus cucumeris assessed as rice sheath blight disease control at 7.8 ppm foliar application for 24 hr after inoculation by curative manner
[33] = system: Podosphaera fuliginea; experiment: Fungicidal activity against Podosphaera fuliginea assessed as cucumber powdery mildew control at 7.8 ppm foliar application 24 hr after inoculation by curative manner
[34] = system: Botrytis cinerea; experiment: Fungicidal activity against Botryotinia fuckeliana assessed as cucumber gray mold disease control at 31.3 ppm foliar application 24 hr before inoculation by preventive manner
[35] = system: Pseudoperonospora cubensis; experiment: Fungicidal activity against Pseudoperonospora cubensis assessed as cucumber downy mildew disease control at 125 ppm foliar application 24 hr after inoculation by curative manner
[36] = system: Pseudoperonospora cubensis; experiment: Fungicidal activity against Pseudoperonospora cubensis assessed as cucumber downy mildew disease control at 31.3 ppm foliar application 24 hr after inoculation by curative manner
[37] = system: Pseudoperonospora cubensis; experiment: Fungicidal activity against Pseudoperonospora cubensis assessed as cucumber downy mildew disease control at 31.3 ppm foliar application 24 hr before inoculation onto the adaxial(treated) surface of leaf by preventive manner
[38] = system: Botrytis cinerea; experiment: Fungicidal activity against Botryotinia fuckeliana assessed as cucumber gray mold disease control at 7.8 ppm foliar application 24 hr after inoculation by curative manner
[39] = system: Botrytis cinerea; experiment: Fungicidal activity against Botryotinia fuckeliana assessed as cucumber gray mold disease control at 7.8 ppm treated 24 hr before inoculation by preventive manner
[40] = system: Blumeria graminis; experiment: Fungicidal activity against Blumeria graminis f. sp. tritici assessed as wheat powdery mildew disease control at 7.8 ppm foliar application for 24 hr before inoculation by preventive manner
[41] = system: Botrytis cinerea; experiment: Fungicidal activity against Botryotinia fuckeliana assessed as cucumber gray mold disease control at 2 ppm foliar application 24 hr after inoculation by curative manner
[42] = system: Blumeria graminis; experiment: Fungicidal activity against Blumeria graminis f. sp. tritici assessed as wheat powdery mildew disease control at 7.8 ppm foliar application for 24 hr after inoculation by curative manner
[43] = system: Pyricularia oryzae; experiment: Fungicidal activity against Magnaporthe oryzae Cav. race 003 assessed as rice blast disease control at 7.8 ppm foliar application for 24 hr before inoculation by preventive manner
[44] = system: Pseudoperonospora cubensis; experiment: Fungicidal activity against Pseudoperonospora cubensis assessed as cucumber downy mildew disease control at 2 ppm foliar application 24 hr before inoculation onto the adaxial(treated) surface of leaf by preventive manner
[45] = system: Botrytis cinerea; experiment: Fungicidal activity against Botryotinia fuckeliana assessed as cucumber gray mold disease control at 7.8 ppm foliar application 24 hr before inoculation by preventive manner
[46] = system: Blumeria graminis; experiment: Fungicidal activity against Blumeria graminis f. sp. tritici assessed as wheat powdery mildew disease control at 31.3 ppm foliar application for 24 hr after inoculation by curative manner
[47] = system: Blumeria graminis; experiment: Fungicidal activity against Blumeria graminis f. sp. tritici assessed as wheat powdery mildew disease control at 31.3 ppm foliar application for 24 hr before inoculation by preventive manner
[48] = system: Podosphaera fuliginea; experiment: Fungicidal activity against Podosphaera fuliginea assessed as cucumber powdery mildew control at 0.125 ppm foliar application 24 hr before inoculation by preventive manner
[49] = system: Pseudoperonospora cubensis; experiment: Fungicidal activity against Pseudoperonospora cubensis assessed as cucumber downy mildew disease control at 2 ppm foliar application 24 hr after inoculation by curative manner
[50] = system: Pyricularia oryzae; experiment: Fungicidal activity against Magnaporthe oryzae Cav. race 003 assessed as rice blast disease control at 125 ppm foliar application for 24 hr before inoculation by preventive manner
[51] = system: Blumeria graminis; experiment: Fungicidal activity against Blumeria graminis f. sp. tritici assessed as wheat powdery mildew disease control at 2 ppm foliar application for 24 hr before inoculation by preventive manner
[52] = system: Pseudoperonospora cubensis; experiment: Fungicidal activity against Pseudoperonospora cubensis assessed as cucumber downy mildew disease control at 0.5 ppm foliar application 24 hr before inoculation onto the abaxial(treated) surface of leaf by preventive manner
[53] = system: Pseudoperonospora cubensis; experiment: Fungicidal activity against Pseudoperonospora cubensis assessed as cucumber downy mildew disease control at 0.5 ppm foliar application 24 hr after inoculation by curative manner
[54] = system: Pseudoperonospora cubensis; experiment: Fungicidal activity against Pseudoperonospora cubensis assessed as cucumber downy mildew disease control at 0.5 ppm foliar application 24 hr before inoculation onto the adaxial(treated) surface of leaf by preventive manner
[55] = system: Podosphaera fuliginea; experiment: Fungicidal activity against Podosphaera fuliginea assessed as cucumber powdery mildew disease control at 500 ppm treated 24 hr before inoculation by preventive manner
[56] = system: Pyricularia oryzae; experiment: Fungicidal activity against Magnaporthe oryzae Cav. race 003 assessed as rice blast disease control at 125 ppm treated 24 hr before inoculation by preventive manner
[57] = system: Botrytis cinerea; experiment: Fungicidal activity against Botryotinia fuckeliana assessed as cucumber gray mold disease control at 31.3 ppm treated 24 hr before inoculation by preventive manner
[58] = system: Botrytis cinerea; experiment: Fungicidal activity against Botryotinia fuckeliana assessed as cucumber gray mold disease control at 125 ppm treated 24 hr before inoculation by preventive manner
[59] = system: Pyricularia oryzae; experiment: Fungicidal activity against Magnaporthe oryzae Cav. race 003 assessed as rice blast disease control at 500 ppm treated 24 hr before inoculation by preventive manner
[60] = system: Podosphaera fuliginea; experiment: Fungicidal activity against Podosphaera fuliginea assessed as cucumber powdery mildew disease control at 31.3 ppm treated 24 hr before inoculation by preventive manner
[61] = system: Blumeria graminis; experiment: Fungicidal activity against Blumeria graminis f. sp. tritici assessed as wheat powdery mildew disease control at 0.5 ppm foliar application for 24 hr after inoculation by curative manner
[62] = system: Blumeria graminis; experiment: Fungicidal activity against Blumeria graminis f. sp. tritici assessed as wheat powdery mildew disease control at 0.5 ppm foliar application for 24 hr before inoculation by preventive manner

## CNC(=O)C(OC)c1cccc(COc2cc(C)ccc2C)c1 (configuration not stated)
[1]
  Activity: 0%
[2]
  Activity: 70%
[3]
  Activity: 40%
[4]
  Activity: 97%
[5]
  Activity: 100%
[6]
  Activity: 70%
[7]
  Activity: 80%
[8]
  Activity: 80%
[9]
  Activity: 97%
[10]
  Activity: 97%
[11]
  Activity: 70%
[12]
  Activity: 50%
[13]
  Activity: 90%
[14]
  Activity: 97%
[15]
  Activity: 50%
[16]
  Activity: 70%
[17]
  Activity: 70%
[18]
  Activity: 40%
[19]
  Activity: 80%
[20]
  Activity: 30%
[21]
  Activity: 20%
[22]
  Activity: 30%
[23]
  Activity: 90%
[24]
  Activity: 90%
[25]
  Activity: 70%
[26]
  Activity: 10%
[27]
  Activity: 90%
[28]
  Activity: 20%
[29]
  Activity: 60%
[30]
  Activity: 99%
[31]
  Activity: 90%
[32]
  Activity: 30%
[33]
  Activity: 100%
[34]
  Activity: 80%
[35]
  Activity: 30%
[36]
  Activity: 30%
[37]
  Activity: 97%
[38]
  Activity: 50%
[39]
  Activity: 50%
[40]
  Activity: 90%
[41]
  Activity: 20%
[42]
  Activity: 90%
[43]
  Activity: 70%
[44]
  Activity: 97%
[45]
  Activity: 50%
[46]
  Activity: 97%
[47]
  Activity: 97%
[48]
  Activity: 30%
[49]
  Activity: 0%
[50]
  Activity: 95%
[51]
  Activity: 90%

## COC(=O)C(C)N(C(=O)Cc1ccccc1)c1c(C)cccc1C (configuration not stated) [BENALAXYL]
[1]
  Activity: 40%
[9]
  Activity: 97%
[10]
  Activity: 20%
[15]
  Activity: 20%
[16]
  Activity: 70%
[17]
  Activity: 97%
[52]
  Activity: 0%
[53]
  Activity: 0%
[25]
  Activity: 40%
[35]
  Activity: 80%
[54]
  Activity: 0%
[36]
  Activity: 80%
[37]
  Activity: 70%
[44]
  Activity: 20%
[49]
  Activity: 10%

## CNC(=O)C(OC)c1cccc(COc2cc(C)cc(C)c2)c1 (configuration not stated)
[55]
  Activity: <90%
[56]
  Activity: 90%
[57]
  Activity: 50%

## CNC(=O)C(OC)c1cccc(COc2ccccc2Br)c1 (configuration not stated)
[56]
  Activity: 90%
[31]
  Activity: 90%
[58]
  Activity: 50%

## CCNC(=O)C(OC)c1cccc(COc2cc(C)ccc2C)c1 (configuration not stated)
[59]
  Activity: <90%
[60]
  Activity: 90%
[58]
  Activity: 50%

## CC(C)(C)C(=O)C(Oc1ccc(Cl)cc1)n1cncn1 (configuration not stated) [TRIADIMEFON]
[61]
  Activity: 50%
[24]
  Activity: 90%
[62]
  Activity: 30%
[40]
  Activity: 97%
[42]
  Activity: 90%
[47]
  Activity: 97%
[51]
  Activity: 50%
